Two molecules from patent US11603386B2, “Insect, tick, and mite repellent derived from Xenorhabdus budapestensis” (Wisconsin Alumni Research Foundation, priority 2017, dated 2023) can be followed below.

The subject of this assay is Aedes aegypti. As to the kind of experiment: Repellent screening assay (in vitro membrane feeding, Hemotek feeder, treated cloth). Type of assay: in vivo. The following applies: for RD90: concentration producing 90% reduction in feeding rate, 30 min exposure. The text has this: FIG. 1 is a photograph of the equipment used for the repellent screening assay. The apparatus includes a temperature-controlled feeder unit which includes a collagen casing covered by conventional cheese cloth. The collagen mimics the surface of human and is in contact with a heating element (not seen in FIG. 1) whose temperature is controlled by the temperature controller. The collagen pad is saturated with a solution that mimics human blood. The compound whose repellency is to be tested is applied to the cheese cloth, which is then affixed to the collagen pad. In the main panel in FIG. 1, the feeder unit is shown in its operational position, on top of a container in which are mosquitos (or any other arthropod) that is to be repelled. […] In practice, a known amount of putative repellent is applied to the cheese cloth. Unfed mosquitos, for example, are within the mosquito container. The feeder unit is then placed on top of the mosquito container for a pre-determined amount of time. The mosquitos are then sacrificed and examined to determine how many mosquitos fed (i.e., were not repelled) and how many mosquitos were still unfed after the test (i.e., were repelled). In this fashion, very reliable data can be generated regarding the effectiveness of any putative repellent composition. See Katritzky, A. R., et al. (2008) Proc. Nat. Acad. Sci. (US), 105:7359-7364 and Katritzky, A. R., et al. (2010) Journal of Med. Entomol., 47:924-938.
Unfed mosquitos are then used as test subjects. After the time course of each experiment is completed, the mosquitos are sacrificed and examined to determine how many mosquitos have fed (and thus were not repelled) versus how many mosquitos remain unfed (and thus were repelled). Fed versus unfed mosquitos can be separated by simple visual examination. Fed mosquites have an engorged, distended appearance. Representative images depicting the appearance of fed vs unfed mosquitoes resulting from the repellent screening assays is shown in FIG. 7. Images clearly show engorged abdomens and food red dye when mosquitoes were exposed to water only as negative repellent controls (FIG. 7, panel A).
A colony of the Aedes aegypti Liverpool strain was maintained at the University of Wisconsin according to standard procedures reported previously (Paskewitz et al., 1999; Kajla et al., 2010, Christensen et al., 1984). Anopheles gambiae and Culex pipiens (Iowa strain) were reared according to established protocols (Aliota et al., 2016) in a 100 square feet walk-in environmental chamber maintained at 26.5±0.5° C. and 80±5% relative humidity. For egg production, adult female mosquitoes were offered defibrinated rabbit blood (HemoStat Laboratories, Dixon, Calif., USA) via a Hemotek-brand membrane feeding system (Discovery Workshops, Accrington, UK) once a week. Adult mosquitoes were maintained on a constant exposure to 10% sucrose on cotton balls and larvae were fed Tetramin®-brand fish food. For repellent assays, nulliparous, mated, twenty 7-10 days old adult female mosquitoes were separated in screened pint-size paper containers (Neptune Paper Products, Fort Lee, N.J., USA). Mosquitoes were starved for 12-16 hours before the repellent assay. Mosquitoes were exposed to repellent compounds for 30 min at room temperature (incandescent light, 25-26° C.) between 10:00 am and 4:00 pm (see below for repellent assay set-up).
A Hemotek-brand feeding system was used to keep the feeding solution at a constant temperature set at 37° C. […]

SMILES strings stand for the structures.

Consider `CCC(C)OC(=O)N1CCCCC1CCO` (centres unmarked) [Picaridin], for which the “RE90 (relative efficacy)” value amounted to 0.37 and the RD90 is 0.498 Percent concentration (v/v).

With `CCN(CC)C(=O)c1cccc(C)c1` [DEET, N,N-diethyl-3-methylbenzamide], the “RE90 (relative efficacy)” value is 1 and the RD90 is given as 0.188 Percent concentration (v/v). Where the note is “1%, positive control, FIG. 7 panel B”, the “Feeding (engorgement / red dye in abdomen)” value was “no feeding occurred”.
